Like-named read-outs stand apart in the source and are kept apart here.
How the values were obtained:
[1] = Urinary excretion / renal clearance of acoziborole and SCYX-3109 by LC-MS/MS; assay type: in vivo; details: male, human, urine and plasma; CumAe0–240h/AUC0–240h; mean ± SD; 960 mg single oral dose of acoziborole; read-out: renal clearance CLr0–240h (converted)
Method: Urine samples were collected before IP administration (single urine void) and then during intervals of 0–6, 6–12, 12–24, 24–48, 48–72, 72–96, 96–120, 120–168, 168–192, 192–216, and 216–240 h post-dose and for the additional 48-h collection period starting on Day 15 post-dose, that is, 336–384 h. Samples were acidified with citric acid to avoid acoziborole degradation and were refrigerated until the end of the block collection periods. The total weight and volume of urine were then recorded. At the end of each collection period, two aliquots of acidified urine (20 mL) were taken from the sample and stored in polypropylene tubes at −20°C until further analysis for total radioactivity. Two aliquots of 1 mL acidified urine were collected into tubes containing bovine serum albumin in aqueous solution (to avoid non-specific adsorption of acoziborole) and NaCl for acoziborole and SCYX-3109 assays. […]
SGS Belgium (Wavre, Belgium) performed the analysis to determine acoziborole and SCYX-3109 concentrations, using validated bioanalytical assays with liquid chromatography with tandem mass spectrometry (LC-MS/MS) with a Supelco Ascentis Express C8, 2.7 µm, 50 × 2.1 mm I.D. separation column. In plasma, the lower limit of quantification (LLOQ) was 25 ng/mL for acoziborole and 10 ng/mL for SCYX-3109. […]

[2] = Safety and tolerability assessment, phase I mass balance study; assay type: in vivo, human
Method: Safety was assessed by adverse event (AE) reports and at specific times during the physical examination, vital signs, 12-lead ECGs, and laboratory evaluations (see Supplementary Information section 2). AEs were all recorded from the time participants signed the consent form until the follow-up call, 5–10 days after final study discharge, and were evaluated for type, severity, frequency of AEs, and relationship to the IP.

[3] = parameters: method as in PMID 21738803; details: oral, mice; cited from earlier work
[4] = parameters: method as in PMID 21738803; details: NHPs, cited from earlier work
[5] = parameters: method as in PMID 21738803; details: rats; cited from earlier work
[6] = parameters: method as in PMID 21738803; details: liver sub-cellular fractions from rodents, dogs, cynomolgus monkeys, and humans; cited from earlier work

For `CC1(C)OB(O)c2cc(NC(=O)c3ccc(F)cc3C(F)(F)F)ccc21` [acoziborole], the CL renal [1] was 0.0333 mL/min, the overall tolerability ([2]; 960 mg single oral dose, N = 6) was “well-tolerated overall” and the “Balanitis candida, participants” value ([2]; Day 1, N = 6) was 0 (0.0) 0 (0.0) n (%). For the same compound, the “Blood glucose increased, participants” value ([2]; Day 1, N = 6) was 0 (0.0) 0 (0.0) n (%), the “Gastrointestinal disorders (system organ class), events” value (shortened to “Gastrointestinal disorders … events”) ([2]; Day 1, N = 6) was 0 and the “Gastrointestinal disorders (system organ class), participants” value (“Gastrointestinal disorders … participants” for short) ([2]; Day 1, N = 6) was 0 (0.0) n (%). For the same compound, the “Headache, events” value ([2]; Day 1, N = 6) was 2, the “Headache, participants” value ([2]; Day 1, N = 6) was 2 (33.3) n (%) and the “Infections and infestation (system organ class), events” value (from here on “Infections and infestation … events”) ([2]; Day 1, N = 6) was 0. For the same compound, the “Infections and infestation (system organ class), participants” value (“Infections and infestation … participants” below) ([2]; Day 1, N = 6) was 0 (0.0) n (%), the “Injury, poisoning and procedural complications (system organ class), events” value (“Injury … events” for short) ([2]; Day 1, N = 6) was 0 and the “Injury, poisoning and procedural complications (system organ class), participants” value (“Injury … participants” below) ([2]; Day 1, N = 6) was 0 (0.0) n (%). The “Investigations (system organ class), events” value (“Investigations … events” for short) ([2]; Day 1, N = 6) was 0, the “Investigations (system organ class), participants” value (“Investigations … participants” below) ([2]; Day 1, N = 6) was 0 (0.0) n (%) and the “Myalgia, events” value ([2]; Day 1, N = 6) was 0. For the same compound, the “Myalgia, participants” value ([2]; Day 1, N = 6) was 0 (0.0) n (%), the “Nervous system disorders (system organ class), events” value (“Nervous system disorders … events” for short) ([2]; Day 1, N = 6) was 2 and the “Nervous system disorders (system organ class), participants” value (from here on “Nervous system disorders … participants”) ([2]; Day 1, N = 6) was 2 (33.3) n (%). For the same compound, the “Phosphokinase increased, participants” value ([2]; Day 1, N = 6) was 0 (0.0) 0 (0.0) n (%), the “Rhinitis, participants” value ([2]; Day 1, N = 6) was 0 (0.0) 0 (0.0) n (%) and the “Skin laceration, events” value ([2]; Day 1, N = 6) was 0. The “Skin laceration, participants” value ([2]; Day 1, N = 6) was 0 (0.0) n (%), the “Surgical and medical procedures (system organ class), events” value (“Surgical and medical procedures … events” below) ([2]; Day 1, N = 6) was 0 and the “Surgical and medical procedures (system organ class), participants” value (“Surgical and medical procedures … participants” below) ([2]; Day 1, N = 6) was 0 (0.0) n (%). The “TEAEs, events” value ([2]; Day 1, N = 6) was 2, the “TEAEs, participants” value ([2]; Day 1, N = 6) was 2 (33.3) n (%) and the “Tooth repair, events” value ([2]; Day 1, N = 6) was 0. For the same compound, the “Tooth repair, participants” value ([2]; Day 1, N = 6) was 0 (0.0) n (%), the “Toothache, events” value ([2]; Day 1, N = 6) was 0 and the “Toothache, participants” value ([2]; Day 1, N = 6) was 0 (0.0) n (%). For the same compound, the “Balanitis candida, events” value ([2]; Day 2 to Day 15, N = 6) was 2, the “Balanitis candida, participants” value ([2]; Day 2 to Day 15, N = 6) was 1 (16.7) n (%) and the “Blood glucose increased, events” value ([2]; Day 2 to Day 15, N = 6) was 0. The “Blood glucose increased, participants” value ([2]; Day 2 to Day 15, N = 6) was 0 (0.0) n (%), the “Gastrointestinal disorders … events” value ([2]; Day 2 to Day 15, N = 6) was 1 and the “Gastrointestinal disorders … participants” value ([2]; Day 2 to Day 15, N = 6) was 1 (16.7) n (%). For the same compound, the “Headache, events” value ([2]; Day 2 to Day 15, N = 6) was 1, the “Headache, participants” value ([2]; Day 2 to Day 15, N = 6) was 1 (16.7) n (%) and the “Infections and infestation … events” value ([2]; Day 2 to Day 15, N = 6) was 2. The “Infections and infestation … participants” value ([2]; Day 2 to Day 15, N = 6) was 1 (16.7) n (%), the “Injury … events” value ([2]; Day 2 to Day 15, N = 6) was 0 and the “Injury … participants” value ([2]; Day 2 to Day 15, N = 6) was 0 (0.0) n (%). For the same compound, the “Investigations … events” value ([2]; Day 2 to Day 15, N = 6) was 1, the “Investigations … participants” value ([2]; Day 2 to Day 15, N = 6) was 1 (16.7) n (%) and the “Myalgia, events” value ([2]; Day 2 to Day 15, N = 6) was 0. The “Myalgia, participants” value ([2]; Day 2 to Day 15, N = 6) was 0 (0.0) n (%), the “Nervous system disorders … events” value ([2]; Day 2 to Day 15, N = 6) was 1 and the “Nervous system disorders … participants” value ([2]; Day 2 to Day 15, N = 6) was 1 (16.7) n (%). For the same compound, the “Phosphokinase increased, events” value ([2]; Day 2 to Day 15, N = 6) was 1, the “Phosphokinase increased, participants” value ([2]; Day 2 to Day 15, N = 6) was 1 (16.7) n (%) and the “Rhinitis, events” value ([2]; Day 2 to Day 15, N = 6) was 0. For the same compound, the “Rhinitis, participants” value ([2]; Day 2 to Day 15, N = 6) was 0 (0.0) n (%), the “Skin laceration, events” value ([2]; Day 2 to Day 15, N = 6) was 0 and the “Skin laceration, participants” value ([2]; Day 2 to Day 15, N = 6) was 0 (0.0) n (%). For the same compound, the “Surgical and medical procedures … events” value ([2]; Day 2 to Day 15, N = 6) was 1, the “Surgical and medical procedures … participants” value ([2]; Day 2 to Day 15, N = 6) was 1 (16.7) n (%) and the “TEAEs, events” value ([2]; Day 2 to Day 15, N = 6) was 6. The “TEAEs, participants” value ([2]; Day 2 to Day 15, N = 6) was 4 (66.7) n (%), the “Tooth repair, events” value ([2]; Day 2 to Day 15, N = 6) was 1 and the “Tooth repair, participants” value ([2]; Day 2 to Day 15, N = 6) was 1 (16.7) n (%). The “Toothache, events” value ([2]; Day 2 to Day 15, N = 6) was 1, the “Toothache, participants” value ([2]; Day 2 to Day 15, N = 6) was 1 (16.7) n (%) and the “Balanitis candida, events” value ([2]; Day 16 to end of study, N = 6) was 0. The “Balanitis candida, participants” value ([2]; Day 16 to end of study, N = 6) was 0 (0.0) n (%), the “Blood glucose increased, events” value ([2]; Day 16 to end of study, N = 6) was 1 and the “Blood glucose increased, participants” value ([2]; Day 16 to end of study, N = 6) was 1 (16.7) n (%). The “Gastrointestinal disorders … events” value ([2]; Day 16 to end of study, N = 6) was 0, the “Gastrointestinal disorders … participants” value ([2]; Day 16 to end of study, N = 6) was 0 (0.0) n (%) and the “Headache, events” value ([2]; Day 16 to end of study, N = 6) was 1. The “Headache, participants” value ([2]; Day 16 to end of study, N = 6) was 1 (16.7) n (%), the “Infections and infestation … events” value ([2]; Day 16 to end of study, N = 6) was 1 and the “Infections and infestation … participants” value ([2]; Day 16 to end of study, N = 6) was 1 (16.7) n (%). For the same compound, the “Injury … events” value ([2]; Day 16 to end of study, N = 6) was 1, the “Injury … participants” value ([2]; Day 16 to end of study, N = 6) was 1 (16.7) n (%) and the “Investigations … events” value ([2]; Day 16 to end of study, N = 6) was 1. For the same compound, the “Investigations … participants” value ([2]; Day 16 to end of study, N = 6) was 1 (16.7) n (%), the “Myalgia, events” value ([2]; Day 16 to end of study, N = 6) was 1 and the “Myalgia, participants” value ([2]; Day 16 to end of study, N = 6) was 1 (16.7) n (%). The “Nervous system disorders … events” value ([2]; Day 16 to end of study, N = 6) was 1, the “Nervous system disorders … participants” value ([2]; Day 16 to end of study, N = 6) was 1 (16.7) n (%) and the “Phosphokinase increased, events” value ([2]; Day 16 to end of study, N = 6) was 0. The “Phosphokinase increased, participants” value ([2]; Day 16 to end of study, N = 6) was 0 (0.0) n (%), the “Rhinitis, events” value ([2]; Day 16 to end of study, N = 6) was 1 and the “Rhinitis, participants” value ([2]; Day 16 to end of study, N = 6) was 1 (16.7) n (%). For the same compound, the “Skin laceration, events” value ([2]; Day 16 to end of study, N = 6) was 1, the “Skin laceration, participants” value ([2]; Day 16 to end of study, N = 6) was 1 (16.7) n (%) and the “Surgical and medical procedures … events” value ([2]; Day 16 to end of study, N = 6) was 0. For the same compound, the “Surgical and medical procedures … participants” value ([2]; Day 16 to end of study, N = 6) was 0 (0.0) n (%), the “TEAEs, events” value ([2]; Day 16 to end of study, N = 6) was 5 and the “TEAEs, participants” value ([2]; Day 16 to end of study, N = 6) was 3 (50.0) n (%). The “Tooth repair, events” value ([2]; Day 16 to end of study, N = 6) was 0, the “Tooth repair, participants” value ([2]; Day 16 to end of study, N = 6) was 0 (0.0) n (%) and the “Toothache, events” value ([2]; Day 16 to end of study, N = 6) was 0. For the same compound, the “Toothache, participants” value ([2]; Day 16 to end of study, N = 6) was 0 (0.0) n (%), the “TEAEs not considered related to the IP” value ([2]; N = 6) was 10/13 and the “changes in ECG parameters, vital signs, or physical examination post-dose” value ([2]; N = 6) was “no significant changes”. For the same compound, the “deaths, serious AEs, discontinuations due to AE” value ([2]; N = 6) was “no deaths, serious AEs, or participant discontinuations due to any AE”, the “mean laboratory testing results (blood chemistry, hematology, urinalysis)” value ([2]; N = 6) was “within acceptable range or considered non-clinically significant” and the “severity of reported TEAEs” value ([2]; N = 6) was “mild or moderate”. For the same compound, the “Musculoskeletal and connective tissue disorders (system organ class), events” value ([2]; human, in vivo, 1 day) was 0, the “Musculoskeletal and connective tissue disorders (system organ class), participants” value ([2]; human, in vivo, 1 day) was 0 (0.0) n (%) and the “treatment-emergent AEs, total number” value ([2]; in the six participants) was 13. The absolute bioavailability [3] was 55%, the “concentration in the CSF as percentage of the plasma concentration” value ([4]; at each time point) was “approximately 5%” and the absolute bioavailability ([4]; oral) was 89%. The “brain to plasma AUC0–24h ratio” value [5] was 44% and the metabolic stability [6] was “metabolically stable”.

From publication PMC12587574, “Mass balance, pharmacokinetics, metabolism, and excretion of radiolabeled acoziborole, a potential novel treatment for human African trypanosomiasis, following single microtracer oral dose to humans” (Antimicrobial Agents and Chemotherapy, 2025)
